Structures can show the parent of a compound that is named as a salt.
tested on: C. albicans; assay: Broth microdilution assay of synergistic lethality with 4 μg/mL FLC (recovery on drug-free YPD); format: cell-based, Candida albicans; conditions: concentration of the compound that is synergistically lethal with 4 μg/mL FLC; C. albicans; recovery on drug-free YPD

| Compound | Synergistic lethal concentrations |
| --- | --- |
| CN(C)CCC=C1c2ccccc2C(C)(C)c2ccccc21.Cl [Melitracen (hydrochloride)] | 50 µM |
| COC(=O)c1ccc2c(c1)NC(=O)/C2=C(\Nc1ccc(N(C)C(=O)CN2CCN(C)CC2)cc1)c1ccccc1 [Nintedanib] | 100 µM |
| O=C(c1ccc(F)c(F)c1Nc1ccc(I)cc1F)N1CC(O)([C@@H]2CCCCN2)C1 [Cobimetinib] | 50 µM |
| C[N+](C)(CC(=O)Nc1ccccc1)CC(=O)Nc1ccccc1.[Cl-] [Carcainium (chloride)] | 100 µM |
| O=C(O)c1cc(-c2ccc(F)cc2F)ccc1O [Diflunisal] | 100 µM |
| CCC(C)(C)c1ccc(CC(C)CN2C[C@@H](C)O[C@@H](C)C2)cc1.Cl (stereo partly shown) [Amorolfine (hydrochloride)] | 100 µM |
| CN(C/C=C/C#CC(C)(C)C)Cc1cccc2ccccc12 [Terbinafine] | 6.25 µM |
| Clc1ccc2c(c1)C(N1CCNCC1)=Nc1ccccc1O2 [Amoxapine] | 100 µM |
| C=CCc1ccc(O)c(OC)c1 [Eugenol] | 100 µM |
| CN1CCN(c2ccc(C(=O)Nc3n[nH]c4ccc(Cc5cc(F)cc(F)c5)cc34)c(NC3CCOCC3)c2)CC1 [Entrectinib] | 50 µM |
| O=C(O)Cc1cc(I)c(Oc2ccc(O)c(I)c2)c(I)c1 [Tiratricol] | 100 µM |
| C=CC(=O)Nc1cccc(Oc2nc(Nc3ccc(N4CCN(C)CC4)cc3)nc3ccsc23)c1 [Olmutinib] | 100 µM |
| CN1CCC(=C2c3ccccc3C=Cc3ccccc32)CC1.CN1CCC(=C2c3ccccc3C=Cc3ccccc32)CC1.Cl.Cl.O.O.O | 100 µM |
| C/C=C(/C)C(=O)O[C@H]1C(C)=C[C@]23C(=O)[C@@H](C=C(CO)[C@@H](O)[C@]12O)[C@H]1[C@@H](C[C@H]3C)C1(C)C [Ingenol Mebutate] | 100 µM |
| O=C(O)c1ccccc1Nc1cccc(C(F)(F)F)c1 [Flufenamic acid] | 100 µM |
| O=C(c1ccc(F)c(F)c1Nc1ccc(I)cc1F)N1CC(O)([C@@H]2CCCCN2)C1 (racemic) [Cobimetinib (racemate)] | 25 µM |
| CC1=C(C)C(=O)C(CCCCCCCCCC[P+](c2ccccc2)(c2ccccc2)c2ccccc2)=CC1=O.[Br-] [Visomitin] | 50 µM |
| C1CCC(C(CC2CCCCN2)C2CCCCC2)CC1 (stereo not shown) [Perhexiline maleate] | 50 µM |
| CC1CC(OC(=O)C(O)c2ccccc2)CC(C)(C)C1 (stereo not shown) [Cyclandelate] | 100 µM |
| O=C(O)/C=C/C(=O)O.O=C(c1ccc(F)c(F)c1Nc1ccc(I)cc1F)N1CC(O)([C@@H]2CCCCN2)C1.O=C(c1ccc(F)c(F)c1Nc1ccc(I)cc1F)N1CC(O)([C@@H]2CCCCN2)C1 [Cobimetinib (hemifumarate)] | 50 µM |
| CCN1CCN(c2cc(-c3ccc(F)cc3)c3c(n2)CCCCCC3)CC1 [Blonanserin] | 50 µM |
| CCOC(=O)C1=C(C)NC(C)=C(C(=O)OC)C1c1cccc(Cl)c1Cl (stereo not shown) [Felodipine] | 100 µM |
| Cc1[nH]c2ccccc2c1CCNCc1ccc(/C=C/C(=O)NO)cc1 [Panobinostat] | 100 µM |
| CC(C)[C@@]1(NC(=O)[C@@H]2C[C@@H]3c4cccc5[nH]cc(c45)C[C@H]3N(C)C2)O[C@@]2(O)[C@@H]3CCCN3C(=O)[C@H](Cc3ccccc3)N2C1=O.CS(=O)(=O)O [Dihydroergocristine (mesylate)] | 100 µM |
| NC(=O)Cc1cccc(C(=O)c2ccccc2)c1N [Nepafenac] | 100 µM |

| Compound | Synergistic lethal concentrations |
| --- | --- |
| C=CCc1ccc(O)c(-c2cc(CC=C)ccc2O)c1 [Magnolol] | 12.5 µM |
| c1ccc2c(c1)Sc1ccccc1N2CC1CN2CCC1CC2 (stereo not shown) [Mequitazine] | 25 µM |
| Cl.Cl.OCCOCCN1CCN(C(c2ccccc2)c2ccc(Cl)cc2)CC1 (stereo not shown) [Hydroxyzine (dihydrochloride)] | 100 µM |
| CCCCCNC(=N)N/N=C/c1c[nH]c2ccc(OC)cc12.O=C(O)/C=C\C(=O)O [Tegaserod (maleate)] | 6.25 µM |
| Cl.Fc1ccc([C@@H]2CCNC[C@H]2COc2ccc3c(c2)OCO3)cc1 [Paroxetine (hydrochloride)] | 50 µM |
| Cc1nc2c([nH]1)-c1ccccc1N(C(=O)c1ccc(NC(=O)c3ccccc3-c3ccccc3)cc1)CC2.Cl [Conivaptan (hydrochloride)] | 100 µM |
| CN(C)N(C)C(=O)[C@@]1(Cc2ccccc2)CCCN(C(=O)[C@@H](Cc2c[nH]c3ccccc23)NC(=O)C(C)(C)N)C1.Cl [Anamorelin (hydrochloride)] | 100 µM |
| Cc1cc(Nc2ncc(Cl)c(Nc3ccccc3S(=O)(=O)C(C)C)n2)c(OC(C)C)cc1C1CCNCC1 [Ceritinib] | 12.5 µM |
| OCc1cc(C(O)CNCCCCCCOCCCCc2ccccc2)ccc1O (stereo not shown) [Salmeterol] | 100 µM |
| OCCOCCN1CCN(C2=Nc3ccccc3Sc3ccccc32)CC1 [Quetiapine] | 100 µM |
| CCCCCCCCCCCCCCCC[N+](C)(C)CCN(Cc1ccc(OC)cc1)c1ncccn1.[Br-] [Thonzonium (bromide)] | 100 µM |
| CN(C)[C@@H](CCOc1cccc2ccccc12)c1ccccc1.Cl [Dapoxetine (hydrochloride)] | 50 µM |
| CCCCCCCCOc1ccccc1C(=O)Nc1ccc(C(=O)OCC[N+](C)(CC)CC)cc1.[Br-] [Otilonium (bromide)] | 6.25 µM |
| CN1CCN(C2=Nc3ccccc3Oc3ccc(Cl)cc32)CC1 [Loxapine] | 100 µM |
| CNCCC=C1c2ccccc2CCc2ccccc21.Cl [Nortriptyline (hydrochloride)] | 100 µM |
| CC(C)n1nccc1-c1ncccc1COc1cccc(O)c1C=O [Voxelotor] | 100 µM |
| CN1CCCC(CC2c3ccccc3Sc3ccccc32)C1.Cl.O (stereo not shown) [Metixene hydrochloride hydrate] | 25 µM |
| CN[C@H]1CC[C@@H](c2ccc(Cl)c(Cl)c2)c2ccccc21.Cl [Sertraline (hydrochloride)] | 25 µM |
| CCCCOc1ccc(CC(=O)NO)cc1 [Bufexamac] | 100 µM |
| C=CC(=O)Nc1cc(Nc2nccc(-c3cn(C)c4ccccc34)n2)c(OC)cc1N(C)CCN(C)C.CS(=O)(=O)O.CS(=O)(=O)O [Osimertinib (dimesylate)] | 100 µM |
| COC(=O)[C@H]1[C@H]2C[C@@H]3c4[nH]c5cc(OC)ccc5c4CCN3C[C@H]2C[C@@H](OC(=O)c2cc(OC)c(OC)c(OC)c2)[C@@H]1OC.Cl [Reserpine (hydrochloride)] | 100 µM |
| O=c1[nH]c2ccccc2n1CCCN1CCC(n2c(=O)[nH]c3cc(Cl)ccc32)CC1 [Domperidone] | 100 µM |
| Cl.OC(c1cc(C(F)(F)F)nc2c(C(F)(F)F)cccc12)C1CCCCN1 (stereo not shown) [Mefloquine (hydrochloride)] | 25 µM |
| CCCCOc1ccc(OCCCN2CCOCC2)cc1.Cl [Pramocaine (hydrochloride)] | 100 µM |

Source: paper PMC11200976, “Pitavastatin Calcium Confers Fungicidal Properties to Fluconazole by Inhibiting Ubiquinone Biosynthesis and Generating Reactive Oxygen Species” (Antioxidants, 2024)
